Measured values: the NIST ThermoML archive (doi:10.1021/je3001969)

Assay: xn = mol fraction of the nth substance listed
Details: Liquid, Pycnometric method

[C-]#[O+] [carbon monoxide] + CCC(=O)O
Details	mass density [kg/m3]
293.2 K, x1 = 0.0156	988.2
293.2 K, x1 = 0.0211	983.1
293.2 K, x1 = 0.0237	978.3
293.2 K, x1 = 0.0298	970.5
293.2 K, x1 = 0.0353	962.3
293.2 K, x1 = 0.0418	950.4
293.2 K, x1 = 0.0487	937.2
293.2 K, x1 = 0.0596	919.7
313.2 K, x1 = 0.0121	985.4
313.2 K, x1 = 0.0146	978.3
313.2 K, x1 = 0.0202	972.6
313.2 K, x1 = 0.0269	965.1
313.2 K, x1 = 0.0311	957.4
313.2 K, x1 = 0.0387	945.2
313.2 K, x1 = 0.0465	931.2
313.2 K, x1 = 0.0557	913.3
333.2 K, x1 = 0.0105	977.4
333.2 K, x1 = 0.0125	971.2
333.2 K, x1 = 0.0179	964.9
333.2 K, x1 = 0.024	958
333.2 K, x1 = 0.028	949.8
333.2 K, x1 = 0.0341	938.5
333.2 K, x1 = 0.0418	925.3
333.2 K, x1 = 0.0508	907.7
353.2 K, x1 = 0.0082	968.4
353.2 K, x1 = 0.0108	963
353.2 K, x1 = 0.0165	956.7
353.2 K, x1 = 0.0225	952.3
353.2 K, x1 = 0.0267	944.7
353.2 K, x1 = 0.0331	933.4
353.2 K, x1 = 0.0407	919.6
353.2 K, x1 = 0.0478	902.3

[C-]#[O+] [carbon monoxide] + COC=O
Details	mass density [kg/m3]
293.2 K, x1 = 0.0184	976.3
293.2 K, x1 = 0.0214	976.1
293.2 K, x1 = 0.0274	974.9
293.2 K, x1 = 0.0342	971.3
293.2 K, x1 = 0.0445	964.7
293.2 K, x1 = 0.054	954.7
293.2 K, x1 = 0.0735	932.5
293.2 K, x1 = 0.0914	911.2
313.2 K, x1 = 0.012	972.1
313.2 K, x1 = 0.0196	971.5
313.2 K, x1 = 0.0259	969.3
313.2 K, x1 = 0.0358	962.4
313.2 K, x1 = 0.0473	950.8
313.2 K, x1 = 0.0598	937.3
313.2 K, x1 = 0.0691	924.7
313.2 K, x1 = 0.0812	904.3
333.2 K, x1 = 0.0101	969.2
333.2 K, x1 = 0.0136	968.7
333.2 K, x1 = 0.0204	967.6
333.2 K, x1 = 0.0286	960.7
333.2 K, x1 = 0.0412	947.8
333.2 K, x1 = 0.0496	937.5
333.2 K, x1 = 0.0613	923
333.2 K, x1 = 0.0744	901.3
353.2 K, x1 = 0.0063	964.6
353.2 K, x1 = 0.01	964.2
353.2 K, x1 = 0.0159	963.2
353.2 K, x1 = 0.0224	956.8
353.2 K, x1 = 0.0297	948.7
353.2 K, x1 = 0.0401	935.3
353.2 K, x1 = 0.0549	916.8
353.2 K, x1 = 0.0696	895.8
